Reference: ChEMBL document CHEMBL1201862, “PubChem BioAssay data set” (2004)
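1) Cells in 96-well plates. 2) Compound, 48 h, 5 concentrations. 3) Linear interpolation between surrounding doses. 4) Unreached endpoint = highest concentration. GI50 = concentration required for 50% inhibition of growth.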 Activity calls are given as the source filed them. Cut-off read from the data, not from the text of the source: active = GI50 up to about 1.1 µM and inactive = higher.

How the values were obtained:
Test in all cases: NCI tumour cell line growth inhibition, 48 h
MDA-MB-231 = test system: MDA-MB-231
NCI-H226 = test system: NCI-H226
SNB-19 = test system: SNB-19
UO-31 = test system: UO-31
PC-3 = test system: PC-3
NCI/ADR-RES = test system: NCI/ADR-RES
SNB-75 = test system: SNB-75
MCF7 = test system: MCF7
OVCAR-8 = test system: OVCAR-8
A549 = test system: A549
OVCAR-5 = test system: OVCAR-5
HL-60 = test system: HL-60
TK-10 = test system: TK-10
NCI-H460 = test system: NCI-H460
HT-29 = test system: HT-29
SF-268 = test system: SF-268
RXF 393 = test system: RXF 393
NCI-H522 = test system: NCI-H522
CCRF-CEM = test system: CCRF-CEM
MDA-MB-435 = test system: MDA-MB-435

| Structure (SMILES) | GI50 (MDA-MB-231) | GI50 (NCI-H226) | GI50 (SNB-19) | GI50 (UO-31) | GI50 (PC-3) | GI50 (NCI/ADR-RES) | GI50 (SNB-75) | GI50 (MCF7) | GI50 (OVCAR-8) | GI50 (A549) | GI50 (OVCAR-5) | GI50 (HL-60) | GI50 (TK-10) | GI50 (NCI-H460) | GI50 (HT-29) | GI50 (SF-268) | GI50 (RXF 393) | GI50 (NCI-H522) | GI50 (CCRF-CEM) | GI50 (MDA-MB-435) |
| --- | --- | --- | --- | --- | --- | --- | --- | --- | --- | --- | --- | --- | --- | --- | --- | --- | --- | --- | --- | --- |
| O=C1CCc2c3c(c4c([nH]c5ccccc54)c2CC1)C(=O)NC3=O | 25.3 µM (inactive) | 3.32 µM (inactive) | 3.94 µM (inactive) | 0.998 µM (active) | 2.05 µM (inactive) | 16.4 µM (inactive) | 0.0265 µM (active) | 2.97 µM (inactive) | 6.87 µM (inactive) | 7.05 µM (inactive) | 34.1 µM (inactive) | 0.671 µM (active) | 10.2 µM (inactive) | 1.58 µM (inactive) | 3.53 µM (inactive) | 7.85 µM (inactive) | 1.91 µM (inactive) | 0.766 µM (active) | 2 µM (inactive) | 1.31 µM (inactive) |
| Oc1nc(S)nc(SCc2c(Cl)c(Cl)c(Cl)c(Cl)c2Cl)n1 | > 100 µM (inactive) | > 69.8 µM (inactive) | > 100 µM (inactive) | 30 µM (inactive) | > 67.9 µM (inactive) | > 58.5 µM (inactive) | > 100 µM (inactive) | 37.2 µM (inactive) | 62.7 µM (inactive) | > 96.4 µM (inactive) | 98.2 µM (inactive) | 20.1 µM (inactive) | > 80.2 µM (inactive) | 58.2 µM (inactive) | 28.1 µM (inactive) | 40 µM (inactive) | 16.9 µM (inactive) | 18.2 µM (inactive) | 15.8 µM (inactive) | 36.9 µM (inactive) |
| Cc1cc(C)nc(NS(=O)(=O)c2ccc(Nc3c4ccccc4nc4ccc(C(=O)Nc5ccc(S(=O)(=O)N=C(N)N)cc5)cc34)cc2)n1 | 81.8 µM (inactive) | > 100 µM (inactive) | > 100 µM (inactive) | 82.4 µM (inactive) | > 100 µM (inactive) | > 100 µM (inactive) | > 100 µM (inactive) | 23.2 µM (inactive) | > 100 µM (inactive) | > 100 µM (inactive) | > 100 µM (inactive) | 34.3 µM (inactive) | > 100 µM (inactive) | 36 µM (inactive) | 59.4 µM (inactive) | 69.5 µM (inactive) | 50.8 µM (inactive) | 65.8 µM (inactive) | 31 µM (inactive) | 48.4 µM (inactive) |
| CC(=O)OC(C)(C)/C=C/C(=O)[C@](C)(O)[C@H]1[C@H](O)C[C@@]2(C)[C@@H]3CC=C4[C@@H](C[C@H](O)C(=O)C4(C)C)[C@]3(C)C(=O)C[C@]12C | < 0.01 µM (active) | < 0.01 µM (active) | < 0.0174 µM (active) | < 0.01 µM (active) | < 0.01 µM (active) | 0.0112 µM (active) | < 0.01 µM (active) | < 0.01 µM (active) | 0.064 µM (active) | < 0.01 µM (active) | < 0.0246 µM (active) | < 0.01 µM (active) | < 0.01 µM (active) | < 0.01 µM (active) | < 0.01 µM (active) | < 0.01 µM (active) | < 0.01 µM (active) | < 0.01 µM (active) | < 0.01 µM (active) | < 0.01 µM (active) |
| CCOC(=O)c1ccc(/N=C/C=C(\Nc2ccc(C(=O)OCC)cc2)c2ccc3ccccc3c2)cc1 | 25.1 µM (inactive) | 34 µM (inactive) | 36.2 µM (inactive) | 40.8 µM (inactive) | 31.3 µM (inactive) | 21.5 µM (inactive) | 28 µM (inactive) | 23.4 µM (inactive) | 35.4 µM (inactive) | 34.5 µM (inactive) | 48.4 µM (inactive) | 25.4 µM (inactive) | 19.8 µM (inactive) | 25.8 µM (inactive) | 18.4 µM (inactive) | 42.1 µM (inactive) | 21.1 µM (inactive) | 27.5 µM (inactive) | 17.9 µM (inactive) | 16.2 µM (inactive) |
